Active and inactive are the calls of the source. The calls are words filed in the database; no cut-off is given here.
Tests used:
[1] = target: Casein kinase I epsilon (CKepsilon) (Homo sapiens, UniProt P49674); experiment: Inhibition of recombinant human full-length His-tagged CKepsilon expressed in baculovirus expression system at 1 uM by Lanthascreen assay relative to control
CHO-K1 = experiment: Genotoxicity in CHOK1 cells measured after 24 hrs in absence of Sprague-Dawley rat liver S9 fraction by Hoechst/calcein-AM staining based micronucleus test; format: toxicity, cell-based, Cricetulus griseus; details: chinese hamster, cho-k1, 24 h
[2] = Cytotoxicity against MDCK cells assessed as cell growth at 20 uM measured after 72 hrs by cellTiter 96 AQueous non-radioactive cell proliferation assay relative to control; format: cell-based, Canis lupus familiaris; details: dog, read-out: Activity
PTK6 = PTK6 (Homo sapiens, UniProt Q13882); experiment: Inhibition of recombinant human full-length His-tagged PTK6 cytoplasmic domain expressed in baculovirus expression system at 1 uM using Fluorescein-Poly GT as substrate by Lanthascreen assay relative to control; details: probe Fluorescein-Poly GT
Chain of PTK6 (Q13882 whole entry, the tested form may be a part): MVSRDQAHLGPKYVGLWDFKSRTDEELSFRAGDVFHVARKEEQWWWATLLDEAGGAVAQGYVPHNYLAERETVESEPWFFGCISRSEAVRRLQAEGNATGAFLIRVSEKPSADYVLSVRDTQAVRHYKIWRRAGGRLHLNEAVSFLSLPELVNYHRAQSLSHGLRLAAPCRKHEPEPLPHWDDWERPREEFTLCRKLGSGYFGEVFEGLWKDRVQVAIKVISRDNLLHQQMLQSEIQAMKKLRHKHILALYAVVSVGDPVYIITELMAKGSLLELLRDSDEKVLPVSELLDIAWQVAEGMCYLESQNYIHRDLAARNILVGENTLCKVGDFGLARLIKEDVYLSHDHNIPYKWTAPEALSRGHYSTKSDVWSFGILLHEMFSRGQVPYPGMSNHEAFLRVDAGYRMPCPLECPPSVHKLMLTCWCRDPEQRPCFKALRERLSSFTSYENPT

[3] = AUC in CD1 mouse at 3 mg/kg, iv or 10 mg/kg, po administered via gavage by LC-MS/MS analysis; format: ADME, organism-based; details: in vivo
[4] = Half life in mouse liver microsomes at 10 uM preincubated for 10 mins followed by NADPH addition by LC-MS/MS analysis; format: ADME, Microsome; details: liver microsomes
[5] = Cytotoxicity against HFF monolayers assessed as cell growth measured after 72 hrs by luciferase reporter gene assay relative to control; format: cell-based; details: human, read-out: Activity
Aldehyde oxidase = target: T1, Aldehyde oxidase (Homo sapiens, UniProt Q06278); experiment: Drug metabolism in human liver S9 fraction assessed as aldehyde oxidase-mediated drug metabolism by measuring rate of parent compound decay at 1 uM measured after 90 mins by LC-MS/MS analysis; format: ADME, subcellular
T1 sequence (Q06278 whole entry): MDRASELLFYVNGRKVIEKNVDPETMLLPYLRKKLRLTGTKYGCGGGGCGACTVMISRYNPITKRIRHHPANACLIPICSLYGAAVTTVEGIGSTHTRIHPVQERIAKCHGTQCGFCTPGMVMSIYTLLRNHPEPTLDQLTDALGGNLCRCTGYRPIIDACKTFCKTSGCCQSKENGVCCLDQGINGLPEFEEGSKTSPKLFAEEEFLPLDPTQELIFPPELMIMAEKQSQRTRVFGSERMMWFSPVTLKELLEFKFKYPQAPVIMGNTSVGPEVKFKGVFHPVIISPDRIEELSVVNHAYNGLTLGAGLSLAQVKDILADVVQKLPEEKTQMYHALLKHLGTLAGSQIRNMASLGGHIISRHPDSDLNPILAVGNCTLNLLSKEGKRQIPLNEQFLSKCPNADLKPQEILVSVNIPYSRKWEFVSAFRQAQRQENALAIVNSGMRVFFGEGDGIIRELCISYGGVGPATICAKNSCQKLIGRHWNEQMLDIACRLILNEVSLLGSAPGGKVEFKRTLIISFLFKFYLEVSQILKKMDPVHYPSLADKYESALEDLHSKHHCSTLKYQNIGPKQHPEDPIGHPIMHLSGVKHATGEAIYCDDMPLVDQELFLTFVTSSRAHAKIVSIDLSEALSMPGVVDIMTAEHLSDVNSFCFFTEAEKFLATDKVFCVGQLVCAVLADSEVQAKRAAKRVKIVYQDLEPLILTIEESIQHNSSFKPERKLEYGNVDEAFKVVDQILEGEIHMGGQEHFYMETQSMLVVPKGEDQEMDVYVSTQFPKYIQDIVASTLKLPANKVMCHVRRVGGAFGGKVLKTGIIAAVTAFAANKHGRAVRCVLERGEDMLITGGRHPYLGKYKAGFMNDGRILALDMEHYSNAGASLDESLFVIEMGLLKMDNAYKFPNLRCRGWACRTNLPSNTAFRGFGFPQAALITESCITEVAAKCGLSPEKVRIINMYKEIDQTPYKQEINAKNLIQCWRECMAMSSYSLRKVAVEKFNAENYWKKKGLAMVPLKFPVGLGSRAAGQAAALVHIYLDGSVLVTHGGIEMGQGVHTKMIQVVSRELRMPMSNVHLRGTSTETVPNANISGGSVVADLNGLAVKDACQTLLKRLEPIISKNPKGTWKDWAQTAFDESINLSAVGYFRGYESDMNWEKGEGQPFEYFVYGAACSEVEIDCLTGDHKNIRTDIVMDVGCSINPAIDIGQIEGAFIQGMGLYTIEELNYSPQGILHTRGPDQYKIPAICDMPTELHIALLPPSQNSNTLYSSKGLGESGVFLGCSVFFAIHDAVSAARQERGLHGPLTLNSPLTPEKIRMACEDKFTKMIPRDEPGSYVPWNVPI

Toxoplasma gondii [6] = experiment: Protection against reactivation of type 2 Toxoplasma gondii ME49 infection in sulfadiazin-treated Ifngr1-/- CD1 mouse assessed as reduction in mouse death at 60 mg/kg, po administered twice daily via gavage for 8 days measured up to 30 days; format: functional, organism-based
Toxoplasma gondii [7] = experiment: Antiparasitic activity against type 1 Toxoplasma gondii RH tachyzoites infected in CD1 mouse assessed as […] at 30 mg/kg, po administered twice daily via gavage for 7 days followed by lung and brain isolation on 15 days post-infection and co-culture with naive CD1 mouse; format: functional
[8] = system: Src (human) versus Toxoplasma gondii CDPK1; experiment: Selectivity ratio of IC50 for inhibition of human Src expressed in Escherichia coli BL21 to IC50 for inhibition of Toxoplasma gondii full-length wild-type C-terminal His-tagged CDPK1 expressed in Escherichia coli BL21(DE3)V2RpAcYc-LIC+LamP; format: toxicity; details: read-out: Ratio IC50
Toxoplasma gondii [9] = experiment: Antiparasitic activity against type 1 Toxoplasma gondii RH tachyzoites infected in CD1 mouse assessed as reduction in parasite expansion at 30 mg/kg, po administered twice daily via gavage for 7 days by bioluminescence assay; format: functional, organism-based
Toxoplasma gondii [10] = experiment: Protection against reactivation of type 2 Toxoplasma gondii ME49 infection in sulfadiazin-treated Ifngr1-/- CD1 mouse assessed as increase in mouse survival at 60 mg/kg, po administered twice daily via gavage for 21 days measured up to 30 days; format: functional, organism-based
Toxoplasma gondii [11] = experiment: Protection against reactivation of type 2 Toxoplasma gondii ME49 infection in sulfadiazin-treated Ifngr1-/- CD1 mouse assessed as increase in mouse survival at 60 to 120 mg/kg, po administered twice daily via gavage for 8 days measured up to 30 days; format: functional, organism-based
Toxoplasma gondii [12] = experiment: Antiparasitic activity against type 1 Toxoplasma gondii RH tachyzoites infected in CD1 mouse assessed as reduction in parasite expansion at 15 mg/kg, po administered four times daily via gavage for 7 days by bioluminescence assay; format: functional, organism-based
MAP4K4 = MAP4K4 (Homo sapiens, UniProt O95819); experiment: Inhibition of recombinant human GST-tagged MAP4K4 catalytic domain expressed in baculovirus expression system at 1 uM by Lanthascreen assay relative to control
Chain of MAP4K4 (O95819 whole entry, the tested form may be a part): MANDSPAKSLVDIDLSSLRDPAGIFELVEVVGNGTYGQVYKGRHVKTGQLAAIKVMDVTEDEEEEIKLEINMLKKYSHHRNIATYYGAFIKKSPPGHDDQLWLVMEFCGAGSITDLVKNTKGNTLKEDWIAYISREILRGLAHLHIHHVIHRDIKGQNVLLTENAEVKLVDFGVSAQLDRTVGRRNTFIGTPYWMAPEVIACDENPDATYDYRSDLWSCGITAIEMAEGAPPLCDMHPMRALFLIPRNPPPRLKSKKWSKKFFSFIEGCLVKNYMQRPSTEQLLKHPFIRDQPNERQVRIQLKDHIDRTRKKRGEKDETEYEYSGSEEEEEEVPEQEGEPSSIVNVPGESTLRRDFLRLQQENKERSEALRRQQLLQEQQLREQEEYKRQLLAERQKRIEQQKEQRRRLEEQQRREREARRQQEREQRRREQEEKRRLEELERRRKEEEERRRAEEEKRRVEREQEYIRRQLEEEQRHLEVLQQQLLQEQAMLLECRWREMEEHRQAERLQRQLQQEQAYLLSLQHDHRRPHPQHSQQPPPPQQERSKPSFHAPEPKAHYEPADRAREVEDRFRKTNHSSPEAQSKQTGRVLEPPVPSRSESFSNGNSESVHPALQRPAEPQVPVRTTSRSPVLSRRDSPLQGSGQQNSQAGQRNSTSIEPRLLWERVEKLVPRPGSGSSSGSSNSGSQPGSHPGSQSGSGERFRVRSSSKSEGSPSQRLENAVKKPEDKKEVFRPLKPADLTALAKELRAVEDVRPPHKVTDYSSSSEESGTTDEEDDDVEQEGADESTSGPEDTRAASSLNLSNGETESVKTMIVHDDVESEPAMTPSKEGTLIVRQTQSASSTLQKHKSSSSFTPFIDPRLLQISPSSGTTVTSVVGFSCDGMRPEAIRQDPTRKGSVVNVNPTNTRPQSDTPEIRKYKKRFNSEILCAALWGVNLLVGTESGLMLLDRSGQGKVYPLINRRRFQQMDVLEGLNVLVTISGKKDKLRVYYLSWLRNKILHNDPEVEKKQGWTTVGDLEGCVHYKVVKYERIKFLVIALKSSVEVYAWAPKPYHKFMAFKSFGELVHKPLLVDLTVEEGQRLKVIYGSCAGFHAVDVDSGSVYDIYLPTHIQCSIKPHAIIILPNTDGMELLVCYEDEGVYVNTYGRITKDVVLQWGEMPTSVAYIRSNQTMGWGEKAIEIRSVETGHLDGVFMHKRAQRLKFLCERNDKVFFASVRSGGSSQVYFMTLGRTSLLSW

Toxoplasma gondii [13] = experiment: Antiparasitic activity against Toxoplasma gondii type III CTG tachyzoites infected in HFF assessed as reduction in parasite growth; format: functional, organism-based
Toxoplasma gondii [14] = experiment: Antiparasitic activity against type 1 Toxoplasma gondii RH tachyzoites infected in CD1 mouse assessed as reduction in mouse death at 60 mg/kg, po administered once daily via gavage for 7 days followed by lung and brain isolation on 15 days post-infection and co-culture with naive CD1 mouse; format: functional, organism-based

Chain of Casein kinase I epsilon (CKepsilon) (P49674 whole entry): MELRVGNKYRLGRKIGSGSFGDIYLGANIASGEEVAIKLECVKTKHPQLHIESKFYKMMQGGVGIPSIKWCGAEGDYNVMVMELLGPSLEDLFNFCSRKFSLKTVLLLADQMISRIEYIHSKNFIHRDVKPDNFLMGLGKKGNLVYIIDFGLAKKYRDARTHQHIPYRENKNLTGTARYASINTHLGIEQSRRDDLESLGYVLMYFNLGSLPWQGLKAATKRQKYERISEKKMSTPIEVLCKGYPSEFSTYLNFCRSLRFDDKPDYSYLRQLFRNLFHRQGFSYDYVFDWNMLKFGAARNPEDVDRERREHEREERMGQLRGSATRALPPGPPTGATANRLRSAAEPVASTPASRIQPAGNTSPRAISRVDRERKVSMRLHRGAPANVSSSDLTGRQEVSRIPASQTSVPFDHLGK

| SMILES | inhibition at 1 µM [1] [%] | Activity (CHO-K1) [µM] | viability at 72 h, 20 µM [2] [%] | inhibition at 1 µM (PTK6) [%] | AUC [3] [ng·h/mL] | half-life at 10 µM [4] [h] | viability at 72 h [5] [%] | Drug metabolism (Aldehyde oxidase) [µL/min/mg] | Activity (Toxoplasma gondii [6]) | survival at 30 mg/kg (Toxoplasma gondii [7]) [%] | selectivity ratio [8] | Activity (Toxoplasma gondii [9]) | Activity (Toxoplasma gondii [10]) | Activity (Toxoplasma gondii [11]) | Activity (Toxoplasma gondii [12]) | inhibition at 1 µM (MAP4K4) [%] | EC50 (Toxoplasma gondii [13]) [nM] | Activity (Toxoplasma gondii [14]) |
| --- | --- | --- | --- | --- | --- | --- | --- | --- | --- | --- | --- | --- | --- | --- | --- | --- | --- | --- |
| N#Cc1ccnc(Oc2nn([C@H]3C[C@H](F)C3)c3ncnc(N)c23)c1 | > 50 | > 100 | 79.4 | > 50 | 3140 | > 2.42 | 112 | < 3.2 | – | – | – | – | – | – | – | – | – | – |
| Nc1ncnc2c1c(Oc1cc(C(F)(F)F)ccn1)nn2C1CC1 | > 50 | > 1000 | 97.8 | > 50 | 2677 | > 2.42 | 106 | < 3.2 | Active | 20 | > 1000 | Active | Active | Active | Active | > 50 | 168 | inactive |
